Measured values published in ChEMBL document CHEMBL4387741, “Optimization of novel reversible Bruton's tyrosine kinase inhibitors identified using Tethering-fragment-based screens” (Bioorg Med Chem, 2019).

Columns and labels:
[1] = target: Serine/threonine-protein kinase WNK1 (Homo sapiens) (UniProt Q9H4A3); test: Inhibition of wild-type human partial length WNK1 (Q194 to A490 residues) expressed in mammalian expression system at 1 uM by Kinomescan method relative to control
[2] = target: Angiopoietin-1 receptor (Homo sapiens) (UniProt Q02763); test: Inhibition of wild-type human partial length TIE2 (N804 to T1112 residues) expressed in bacterial expression system at 1 uM by Kinomescan method relative to control
[3] = test system: Epidermal growth factor receptor (Homo sapiens), P00533 [UNDEFINED MUTATION]; test: Inhibition of human partial length EGFR E746-A750del mutant expressed in bacterial expression system at 1 uM by Kinomescan method relative to control
[4] = target: Serine/threonine-protein kinase LATS2 (Homo sapiens) (UniProt Q9NRM7); test: Inhibition of wild-type human partial length LATS2 (Q641 to V1088 residues) expressed in mammalian expression system at 1 uM by Kinomescan method relative to control
[5] = target: Serine/threonine-protein kinase pim-3 (Homo sapiens) (UniProt Q86V86); test: Inhibition of wild-type human partial length PIM3 (G16 to A317 residues) expressed in bacterial expression system at 1 uM by Kinomescan method relative to control
[6] = target: Phosphatidylinositol 4,5-bisphosphate 3-kinase catalytic subunit alpha isoform (Homo sapiens) (UniProt P42336); test: Inhibition of wild-type human partial length PIK3CA (R108 to N1068 residues) expressed in mammalian expression system at 1 uM by Kinomescan method relative to control
[7] = target: Receptor-type tyrosine-protein kinase FLT3 (Homo sapiens) (UniProt P36888); test: Inhibition of wild-type human partial length FLT3 (V592 to Y969 residues) expressed in bacterial expression system at 1 uM by Kinomescan method relative to control
[8] = target: Serine/threonine-protein kinase PLK3 (Homo sapiens) (UniProt Q9H4B4); test: Inhibition of wild-type human partial length PLK3 (A42 to L334 residues) expressed in mammalian expression system at 1 uM by Kinomescan method relative to control
[9] = target: Serine/threonine-protein kinase MRCK beta (Homo sapiens) (UniProt Q9Y5S2); test: Inhibition of wild-type human partial length MRCKB (L56 to S417 residues) expressed in bacterial expression system at 1 uM by Kinomescan method relative to control
[10] = target: MAP kinase-activated protein kinase 2 (Homo sapiens) (UniProt P49137); test: Inhibition of wild-type human partial length MAPKAPK2 (V48 to D345 residues) expressed in bacterial expression system at 1 uM by Kinomescan method relative to control
[11] = test system: Tyrosine-protein kinase ABL1 (Homo sapiens), P00519 [T315I]; test: Inhibition of human non-phosphorylated ABL1 T315I mutant (S229 to K512 residues) expressed in mammalian expression system at 1 uM by Kinomescan method relative to control
[12] = target: Mitogen-activated protein kinase kinase kinase 20 (Homo sapiens) (UniProt Q9NYL2); test: Inhibition of wild-type human partial length ZAK (M1 to L331 residues) expressed in bacterial expression system at 1 uM by Kinomescan method relative to control
[13] = target: Ephrin type-B receptor 3 (Homo sapiens) (UniProt P54753); test: Inhibition of wild-type human partial length EPHB3 (Q599 to T928 residues) expressed in bacterial expression system at 1 uM by Kinomescan method relative to control
[14] = Volume of distribution at steady state in Sprague-Dawley rat at 1 mg/kg, iv; format: ADME, organism-based; details: in vivo, read-out: Vdss
[15] = target: RAC-gamma serine/threonine-protein kinase (Homo sapiens) (UniProt Q9Y243); test: Inhibition of wild-type human partial length AKT3 expressed in bacterial expression system at 1 uM by Kinomescan method relative to control
[16] = target: Serine/threonine-protein kinase ULK1 (Homo sapiens) (UniProt O75385); test: Inhibition of wild-type human partial length ULK1 (M1 to T309 residues) expressed in mammalian expression system at 10 uM by Kinomescan method relative to control
[17] = target: Serine/threonine-protein kinase pim-3 (Homo sapiens) (UniProt Q86V86); test: Inhibition of wild-type human partial length PIM3 (G16 to A317 residues) expressed in bacterial expression system at 10 uM by Kinomescan method relative to control
[18] = target: Phosphatidylinositol 4,5-bisphosphate 3-kinase catalytic subunit delta isoform (Homo sapiens) (UniProt O00329); test: Inhibition of wild-type human partial length PIK3CD (R108 to Q1044 residues) expressed in mammalian expression system at 10 uM by Kinomescan method relative to control
[19] = target: Mitogen-activated protein kinase kinase kinase 7 (Homo sapiens) (UniProt O43318); test: Inhibition of wild-type human partial length TAK1 (M1 to Q303 residues) expressed in mammalian expression system at 10 uM by Kinomescan method relative to control
[20] = target: Serine/threonine-protein kinase MARK2 (Homo sapiens) (UniProt Q7KZI7); test: Inhibition of wild-type human partial length MARK2 (M1 to R450 residues) expressed in bacterial expression system at 10 uM by Kinomescan method relative to control
[21] = target: Phosphatidylinositol 5-phosphate 4-kinase type-2 beta (Homo sapiens) (UniProt P78356); test: Inhibition of wild-type human full length PIP5K2B (M1 to T416 residues) expressed in bacterial expression system at 10 uM by Kinomescan method relative to control
[22] = target: Serine/threonine-protein kinase ULK2 (Homo sapiens) (UniProt Q8IYT8); test: Inhibition of wild-type human partial length ULK2 (M1 to S301 residues) expressed in mammalian expression system at 10 uM by Kinomescan method relative to control
[23] = target: Serine/threonine-protein kinase NLK (Homo sapiens) (UniProt Q9UBE8); test: Inhibition of wild-type human full length NLK (M13 to E527 residues) expressed in bacterial expression system at 10 uM by Kinomescan method relative to control
[24] = target: Angiopoietin-1 receptor (Homo sapiens) (UniProt Q02763); test: Inhibition of wild-type human partial length TIE2 (N804 to T1112 residues) expressed in bacterial expression system at 10 uM by Kinomescan method relative to control
[25] = target: Uncharacterized serine/threonine-protein kinase SBK3 (Homo sapiens) (UniProt P0C264); test: Inhibition of wild-type human partial length SgK110 (L22 to R329 residues) expressed in bacterial expression system at 10 uM by Kinomescan method relative to control
[26] = target: Dual specificity testis-specific protein kinase 1 (Homo sapiens) (UniProt Q15569); test: Inhibition of wild-type human full length TESK1 (R37 to S626 residues) expressed in bacterial expression system at 10 uM by Kinomescan method relative to control
[27] = target: Serine/threonine-protein kinase 10 (Homo sapiens) (UniProt O94804); test: Inhibition of wild-type human partial length LOK (E16 to V314 residues) expressed in bacterial expression system at 10 uM by Kinomescan method relative to control
[28] = target: Phosphatidylinositol 4,5-bisphosphate 3-kinase catalytic subunit alpha isoform (Homo sapiens) (UniProt P42336); test: Inhibition of wild-type human partial length PIK3CA (R108 to N1068 residues) expressed in mammalian expression system at 10 uM by Kinomescan method relative to control

Angiopoietin-1 receptor (Homo sapiens), sequence (Q02763 whole entry, the tested form may be a part): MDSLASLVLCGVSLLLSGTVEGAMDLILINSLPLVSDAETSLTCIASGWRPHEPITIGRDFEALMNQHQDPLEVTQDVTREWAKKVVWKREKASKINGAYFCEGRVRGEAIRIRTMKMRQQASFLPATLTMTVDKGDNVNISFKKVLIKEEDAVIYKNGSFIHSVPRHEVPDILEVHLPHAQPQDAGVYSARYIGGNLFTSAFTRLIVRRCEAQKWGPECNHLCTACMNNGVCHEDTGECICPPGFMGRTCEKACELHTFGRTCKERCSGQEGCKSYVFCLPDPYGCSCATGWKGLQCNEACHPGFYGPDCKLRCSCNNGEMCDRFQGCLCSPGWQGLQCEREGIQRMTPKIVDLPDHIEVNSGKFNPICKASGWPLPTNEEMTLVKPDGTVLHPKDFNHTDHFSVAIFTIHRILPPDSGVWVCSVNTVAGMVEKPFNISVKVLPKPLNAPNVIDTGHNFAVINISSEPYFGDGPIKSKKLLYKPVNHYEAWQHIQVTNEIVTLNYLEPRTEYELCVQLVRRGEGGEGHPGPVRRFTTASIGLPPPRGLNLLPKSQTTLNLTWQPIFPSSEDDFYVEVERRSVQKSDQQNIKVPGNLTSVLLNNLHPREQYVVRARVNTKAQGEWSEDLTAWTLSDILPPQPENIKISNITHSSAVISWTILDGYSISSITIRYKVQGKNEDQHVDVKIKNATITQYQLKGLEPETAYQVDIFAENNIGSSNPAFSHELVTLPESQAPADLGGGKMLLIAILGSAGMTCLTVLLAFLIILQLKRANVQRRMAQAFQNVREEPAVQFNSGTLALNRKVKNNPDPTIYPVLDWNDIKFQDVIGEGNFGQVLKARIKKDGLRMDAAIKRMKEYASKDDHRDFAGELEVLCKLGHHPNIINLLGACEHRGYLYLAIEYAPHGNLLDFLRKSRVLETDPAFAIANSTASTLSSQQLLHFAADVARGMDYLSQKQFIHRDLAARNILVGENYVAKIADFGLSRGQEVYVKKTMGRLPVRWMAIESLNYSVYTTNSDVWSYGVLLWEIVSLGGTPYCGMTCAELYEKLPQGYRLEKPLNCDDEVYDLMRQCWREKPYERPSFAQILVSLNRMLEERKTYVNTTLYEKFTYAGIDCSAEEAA
Phosphatidylinositol 4,5-bisphosphate 3-kinase catalytic subunit alpha isoform (Homo sapiens), sequence (P42336 whole entry, the tested form may be a part, canonical isoform): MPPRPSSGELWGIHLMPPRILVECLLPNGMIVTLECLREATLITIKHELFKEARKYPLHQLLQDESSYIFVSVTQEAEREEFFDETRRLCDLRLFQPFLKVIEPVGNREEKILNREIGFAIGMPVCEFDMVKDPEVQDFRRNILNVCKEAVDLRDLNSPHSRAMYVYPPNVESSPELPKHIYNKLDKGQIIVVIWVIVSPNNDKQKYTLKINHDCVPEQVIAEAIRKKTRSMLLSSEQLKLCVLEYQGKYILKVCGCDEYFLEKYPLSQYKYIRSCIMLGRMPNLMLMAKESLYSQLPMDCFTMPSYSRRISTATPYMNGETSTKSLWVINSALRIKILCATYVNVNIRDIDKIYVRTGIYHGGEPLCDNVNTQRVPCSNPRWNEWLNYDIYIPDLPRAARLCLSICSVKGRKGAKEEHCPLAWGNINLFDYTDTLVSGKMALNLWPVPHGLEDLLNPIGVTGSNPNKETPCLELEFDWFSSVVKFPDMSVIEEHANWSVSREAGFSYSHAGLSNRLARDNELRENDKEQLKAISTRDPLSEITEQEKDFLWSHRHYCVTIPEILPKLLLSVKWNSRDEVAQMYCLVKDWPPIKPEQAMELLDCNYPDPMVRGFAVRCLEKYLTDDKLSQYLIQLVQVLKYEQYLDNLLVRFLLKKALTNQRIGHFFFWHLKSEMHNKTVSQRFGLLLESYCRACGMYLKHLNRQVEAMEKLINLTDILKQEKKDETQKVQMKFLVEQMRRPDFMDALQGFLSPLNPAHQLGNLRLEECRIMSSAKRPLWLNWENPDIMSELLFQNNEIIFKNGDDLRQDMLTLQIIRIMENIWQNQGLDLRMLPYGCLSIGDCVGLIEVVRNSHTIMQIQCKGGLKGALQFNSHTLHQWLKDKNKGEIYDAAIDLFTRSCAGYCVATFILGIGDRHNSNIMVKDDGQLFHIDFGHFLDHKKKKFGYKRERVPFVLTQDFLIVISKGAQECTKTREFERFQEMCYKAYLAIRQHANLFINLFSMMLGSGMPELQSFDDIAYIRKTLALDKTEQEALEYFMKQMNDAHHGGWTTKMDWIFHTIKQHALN
Serine/threonine-protein kinase PLK3 (Homo sapiens), sequence (Q9H4B4 whole entry, looked up, the tested form may be a part): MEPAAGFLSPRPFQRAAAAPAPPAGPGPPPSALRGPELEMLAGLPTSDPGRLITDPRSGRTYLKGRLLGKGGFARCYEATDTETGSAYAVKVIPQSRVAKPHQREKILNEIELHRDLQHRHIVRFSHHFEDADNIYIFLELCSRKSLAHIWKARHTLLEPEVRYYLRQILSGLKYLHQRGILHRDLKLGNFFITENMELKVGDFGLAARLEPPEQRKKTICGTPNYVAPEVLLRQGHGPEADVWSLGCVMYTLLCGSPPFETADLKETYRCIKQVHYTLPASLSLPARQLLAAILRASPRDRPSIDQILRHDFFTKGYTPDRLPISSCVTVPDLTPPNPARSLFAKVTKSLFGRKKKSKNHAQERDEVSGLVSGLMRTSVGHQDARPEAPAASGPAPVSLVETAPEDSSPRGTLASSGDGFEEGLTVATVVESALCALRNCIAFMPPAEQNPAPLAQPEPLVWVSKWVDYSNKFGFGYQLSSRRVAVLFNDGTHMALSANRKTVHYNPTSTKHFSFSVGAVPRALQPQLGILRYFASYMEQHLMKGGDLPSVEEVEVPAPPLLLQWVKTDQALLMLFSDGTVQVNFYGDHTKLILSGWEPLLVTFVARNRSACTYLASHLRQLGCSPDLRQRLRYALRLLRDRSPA
Phosphatidylinositol 4,5-bisphosphate 3-kinase catalytic subunit delta isoform (Homo sapiens), sequence (O00329 whole entry, the tested form may be a part, canonical isoform): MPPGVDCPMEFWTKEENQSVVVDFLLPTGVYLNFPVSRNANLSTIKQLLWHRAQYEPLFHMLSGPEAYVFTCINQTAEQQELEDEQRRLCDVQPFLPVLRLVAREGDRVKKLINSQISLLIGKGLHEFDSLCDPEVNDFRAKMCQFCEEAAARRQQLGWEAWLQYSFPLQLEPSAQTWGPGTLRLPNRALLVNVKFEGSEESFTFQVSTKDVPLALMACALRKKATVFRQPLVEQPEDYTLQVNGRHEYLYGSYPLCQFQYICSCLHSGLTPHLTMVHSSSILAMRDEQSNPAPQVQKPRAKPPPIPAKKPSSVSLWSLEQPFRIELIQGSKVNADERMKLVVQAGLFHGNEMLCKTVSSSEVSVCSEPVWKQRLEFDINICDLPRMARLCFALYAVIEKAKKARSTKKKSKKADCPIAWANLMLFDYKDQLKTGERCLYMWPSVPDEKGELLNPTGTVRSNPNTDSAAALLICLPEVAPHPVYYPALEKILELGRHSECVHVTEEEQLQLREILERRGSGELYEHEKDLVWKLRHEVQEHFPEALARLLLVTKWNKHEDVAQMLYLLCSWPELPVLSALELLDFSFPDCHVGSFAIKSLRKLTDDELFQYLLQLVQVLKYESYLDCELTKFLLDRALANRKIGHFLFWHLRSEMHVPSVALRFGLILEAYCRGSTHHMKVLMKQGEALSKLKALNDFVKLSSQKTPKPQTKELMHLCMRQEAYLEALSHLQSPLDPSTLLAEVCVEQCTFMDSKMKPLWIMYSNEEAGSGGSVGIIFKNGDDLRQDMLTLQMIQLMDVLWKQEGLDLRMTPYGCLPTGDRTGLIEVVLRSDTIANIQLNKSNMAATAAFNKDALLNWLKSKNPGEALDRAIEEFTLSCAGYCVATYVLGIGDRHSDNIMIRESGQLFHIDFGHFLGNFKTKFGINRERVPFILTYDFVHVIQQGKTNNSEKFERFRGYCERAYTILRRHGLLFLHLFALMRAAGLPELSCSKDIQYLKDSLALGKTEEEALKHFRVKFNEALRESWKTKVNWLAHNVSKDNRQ
Mitogen-activated protein kinase kinase kinase 7 (Homo sapiens), sequence (O43318 whole entry, the tested form may be a part): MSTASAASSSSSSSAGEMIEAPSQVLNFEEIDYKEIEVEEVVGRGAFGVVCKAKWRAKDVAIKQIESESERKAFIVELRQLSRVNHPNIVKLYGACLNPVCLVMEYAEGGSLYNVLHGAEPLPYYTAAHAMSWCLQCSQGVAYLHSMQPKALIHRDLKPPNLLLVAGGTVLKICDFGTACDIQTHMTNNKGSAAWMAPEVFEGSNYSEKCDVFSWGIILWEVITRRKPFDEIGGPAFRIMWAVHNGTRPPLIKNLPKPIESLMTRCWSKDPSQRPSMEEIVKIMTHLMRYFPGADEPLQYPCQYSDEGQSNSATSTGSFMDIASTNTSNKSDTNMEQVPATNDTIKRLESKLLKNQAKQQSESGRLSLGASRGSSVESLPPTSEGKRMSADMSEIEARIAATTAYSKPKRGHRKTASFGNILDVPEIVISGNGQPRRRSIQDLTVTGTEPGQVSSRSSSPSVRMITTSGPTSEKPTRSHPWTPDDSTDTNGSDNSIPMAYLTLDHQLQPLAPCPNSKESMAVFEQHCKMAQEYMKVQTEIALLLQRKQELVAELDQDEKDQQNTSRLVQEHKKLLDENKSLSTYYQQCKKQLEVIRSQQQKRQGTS

SMILES: O=C(Nc1cccc([C@@H]2CN(c3ncnc4[nH]ccc34)CCN2CCO)c1)Nc1c(F)cccc1N1CCCC1
- inhibition [1]: 74%
- inhibition [2]: 99%
- inhibition [3]: 97%
- inhibition [4]: 86%
- inhibition [5]: 89%
- inhibition [6]: 100%
- inhibition [7]: 52%
- inhibition [8]: 74%
- inhibition [9]: 100%
- inhibition [10]: 100%
- inhibition [11]: 100%
- inhibition [12]: 100%
- inhibition [13]: 100%
- Vd [14]: 0.21 L/kg
- inhibition [15]: 100%

SMILES: O=C(Nc1cccc([C@H]2CCCN(c3ncnc4[nH]ccc34)C2)c1)Nc1ccccc1N1CCCC1
- inhibition [16]: 37%
- inhibition [17]: 89%
- inhibition [18]: 99%
- inhibition [19]: 24%
- inhibition [20]: 41%
- inhibition [21]: 4.7%
- inhibition [22]: 50%
- inhibition [23]: 96%
- inhibition [24]: 75%
- inhibition [25]: 100%
- inhibition [26]: 100%
- inhibition [27]: 0.45%
- inhibition [28]: 99%
